Laboratory results as given in the supplement of paper PMC10627819.

How the values were obtained:
B. subtilis 168 [1] = assay: fitness (endpoint OD595 vs no drug) (fraction); higher = more growth
Summary of the method: (§1)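 Plates with 384 wells were inoculated at OD595 0.01 using 30 µl of TSB, LB Lennox or CY, or 55 µl for S. pneumoniae. Incubation was at 37 °C, with OD595 measured every 30 min for 14 h. Fitness is the stationary-phase transition optical density over the robust mean of no-drug control wells, after first-reading background subtraction; it is capped at 1.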

S. aureus DSM 20231 [2] = assay: as above
Summary of the method: as §1

S. aureus Newman [3] = assay: as above
Summary of the method: as §1

S. pneumoniae D39V [4] = assay: as above
Summary of the method: as §1

B. subtilis 168 [5] = assay: Bliss interaction score (quartile over a dose matrix) (fitness difference); higher = more antagonism (negative = synergy)
Summary of the method: (§2)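 Growth in each well was taken as OD595 at entry into stationary phase. Dividing by the plate's robust no-drug mean and capping at 1 gave fitness, and single-drug fitness was inferred from the combination data. The Bliss score, observed minus product-expected fitness, is summarised by quartiles over technical, biological and donor/recipient replicates.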

S. aureus DSM 20231 [6] = assay: as above
Summary of the method: as §2

S. aureus Newman [7] = assay: as above
Summary of the method: as §2

S. pneumoniae D39V [8] = assay: as above
Summary of the method: as §2
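Throughout, for Bliss interaction score (quartile over a dose matrix): first quartile when negative (synergy) and third quartile when positive (antagonism).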

CCCCCCCCCC(=O)N[C@@H](Cc1c[nH]c2ccccc12)C(=O)N[C@H](CC(N)=O)C(=O)N[C@@H](CC(=O)O)C(=O)N[C@@H]1C(=O)NCC(=O)N[C@@H](CCCN)C(=O)N[C@@H](CC(=O)O)C(=O)N[C@H](C)C(=O)N[C@@H](CC(=O)O)C(=O)NCC(=O)N[C@H](CO)C(=O)N[C@@H]([C@H](C)CC(=O)O)C(=O)N[C@@H](CC(=O)c2ccccc2N)C(=O)O[C@@H]1C [Daptomycin] + CN[C@@H]1[C@H](O)[C@H](NC)[C@H]2O[C@@]3(O)C(=O)C[C@@H](C)O[C@H]3O[C@@H]2[C@H]1O [Spectinomycin]
fitness
Conditions	first compound 0.125 µg/mL	first compound 0.25 µg/mL	first compound 0.5 µg/mL	first compound 1 µg/mL	first compound 2 µg/mL	first compound 4 µg/mL
B. subtilis 168 [1], partner 2 µg/mL	0.934	0.979	0.836	–	–	–
B. subtilis 168 [1], partner 4 µg/mL	0.964	0.946	0.813	–	–	–
B. subtilis 168 [1], partner 8 µg/mL	0.863	0.944	0.835	–	–	–
S. aureus DSM 20231 [2], partner 4 µg/mL	–	–	≥ 1	0.978	0.964	–
S. aureus DSM 20231 [2], partner 8 µg/mL	–	–	≥ 1	0.96	0.946	–
S. aureus DSM 20231 [2], partner 16 µg/mL	0.852	0.872	0.905	0.931	0.866	–
S. aureus Newman [3], partner 4 µg/mL	0.963	0.932	0.924	–	–	–
S. aureus Newman [3], partner 8 µg/mL	0.991	0.983	0.952	–	–	–
S. aureus Newman [3], partner 16 µg/mL	0.915	0.917	0.905	–	–	–
S. pneumoniae D39V [4], partner 4 µg/mL	–	–	–	0.92	0.943	0.941
S. pneumoniae D39V [4], partner 8 µg/mL	–	–	–	0.817	0.856	0.847
S. pneumoniae D39V [4], partner 16 µg/mL	–	–	–	0.554	0.569	0.546

fitness, one replicate
Conditions	partner 2 µg/mL	partner 4 µg/mL	partner 8 µg/mL	partner 32 µg/mL	partner 64 µg/mL
B. subtilis 168 [1], first compound 1 µg/mL	0.704	0.71	0.751	–	–
S. aureus DSM 20231 [2], first compound 0.125 µg/mL	–	0.935	0.988	0.767	0.0669
S. aureus DSM 20231 [2], first compound 0.25 µg/mL	–	0.977	0.998	0.7	0.0927
S. aureus DSM 20231 [2], first compound 0.5 µg/mL	–	–	–	0.745	0.079
S. aureus Newman [3], first compound 0.125 µg/mL	–	–	–	0.595	0.0775
S. aureus Newman [3], first compound 0.25 µg/mL	–	–	–	0.63	0.0532
S. aureus Newman [3], first compound 0.5 µg/mL	–	–	–	0.626	0.0675

Conditions	Bliss interaction score
B. subtilis 168 [5]	0.0649
S. aureus DSM 20231 [6]	0.0629
S. aureus Newman [7]	0.0696
S. pneumoniae D39V [8]	0.0673

CCCCCCCCCC(=O)N[C@@H](Cc1c[nH]c2ccccc12)C(=O)N[C@H](CC(N)=O)C(=O)N[C@@H](CC(=O)O)C(=O)N[C@@H]1C(=O)NCC(=O)N[C@@H](CCCN)C(=O)N[C@@H](CC(=O)O)C(=O)N[C@H](C)C(=O)N[C@@H](CC(=O)O)C(=O)NCC(=O)N[C@H](CO)C(=O)N[C@@H]([C@H](C)CC(=O)O)C(=O)N[C@@H](CC(=O)c2ccccc2N)C(=O)O[C@@H]1C [Daptomycin] + COc1c(N2C[C@@H]3CCCN[C@@H]3C2)c(F)cc2c(=O)c(C(=O)O)cn(C3CC3)c12 [Moxifloxacin]
Conditions	fitness
B. subtilis 168 [1], first compound 0.125 µg/mL, partner 0.0312 µg/mL	0.0461
B. subtilis 168 [1], first compound 0.125 µg/mL, partner 0.0625 µg/mL	0.0437
B. subtilis 168 [1], first compound 0.125 µg/mL, partner 0.125 µg/mL	0.0394
B. subtilis 168 [1], first compound 0.125 µg/mL, partner 2 µg/mL	0.0342
B. subtilis 168 [1], first compound 0.125 µg/mL, partner 4 µg/mL	0.0583
B. subtilis 168 [1], first compound 0.125 µg/mL, partner 8 µg/mL	0.0431
B. subtilis 168 [1], first compound 0.25 µg/mL, partner 0.0312 µg/mL	0.0537
B. subtilis 168 [1], first compound 0.25 µg/mL, partner 0.0625 µg/mL	0.0246
B. subtilis 168 [1], first compound 0.25 µg/mL, partner 0.125 µg/mL	0.019
B. subtilis 168 [1], first compound 0.25 µg/mL, partner 2 µg/mL	0.0893
B. subtilis 168 [1], first compound 0.25 µg/mL, partner 4 µg/mL	0.0796
B. subtilis 168 [1], first compound 0.25 µg/mL, partner 8 µg/mL	0.124
B. subtilis 168 [1], first compound 0.5 µg/mL, partner 0.0312 µg/mL	0.0547
B. subtilis 168 [1], first compound 0.5 µg/mL, partner 0.0625 µg/mL	0.026
B. subtilis 168 [1], first compound 0.5 µg/mL, partner 0.125 µg/mL	0.0309
B. subtilis 168 [1], first compound 0.5 µg/mL, partner 2 µg/mL	0.0708
B. subtilis 168 [1], first compound 0.5 µg/mL, partner 4 µg/mL	0.044
B. subtilis 168 [1], first compound 0.5 µg/mL, partner 8 µg/mL	0.0672
S. aureus DSM 20231 [2], first compound 0.5 µg/mL, partner 0.0075 µg/mL	0.776
S. aureus DSM 20231 [2], first compound 0.5 µg/mL, partner 0.015 µg/mL	0.754
S. aureus DSM 20231 [2], first compound 0.5 µg/mL, partner 0.03 µg/mL	0.673
S. aureus DSM 20231 [2], first compound 1 µg/mL, partner 0.0075 µg/mL	0.837
S. aureus DSM 20231 [2], first compound 1 µg/mL, partner 0.015 µg/mL	0.786
S. aureus DSM 20231 [2], first compound 1 µg/mL, partner 0.03 µg/mL	0.696
S. aureus DSM 20231 [2], first compound 2 µg/mL, partner 0.0075 µg/mL	0.761
S. aureus DSM 20231 [2], first compound 2 µg/mL, partner 0.015 µg/mL	0.749
S. aureus DSM 20231 [2], first compound 2 µg/mL, partner 0.03 µg/mL	0.655
S. aureus Newman [3], first compound 0.125 µg/mL, partner 0.0075 µg/mL	0.751
S. aureus Newman [3], first compound 0.25 µg/mL, partner 0.0075 µg/mL	0.744
S. aureus Newman [3], first compound 0.25 µg/mL, partner 0.015 µg/mL	0.636
S. aureus Newman [3], first compound 0.5 µg/mL, partner 0.0075 µg/mL	0.774
S. pneumoniae D39V [4], first compound 1 µg/mL, partner 0.005 µg/mL	0.947
S. pneumoniae D39V [4], first compound 1 µg/mL, partner 0.01 µg/mL	0.965
S. pneumoniae D39V [4], first compound 1 µg/mL, partner 0.02 µg/mL	0.846
S. pneumoniae D39V [4], first compound 1 µg/mL, partner 0.0312 µg/mL	0.0587
S. pneumoniae D39V [4], first compound 1 µg/mL, partner 0.0625 µg/mL	0.0444
S. pneumoniae D39V [4], first compound 1 µg/mL, partner 0.125 µg/mL	0.0384
S. pneumoniae D39V [4], first compound 2 µg/mL, partner 0.005 µg/mL	0.946
S. pneumoniae D39V [4], first compound 2 µg/mL, partner 0.01 µg/mL	0.951
S. pneumoniae D39V [4], first compound 2 µg/mL, partner 0.02 µg/mL	0.826
S. pneumoniae D39V [4], first compound 2 µg/mL, partner 0.0312 µg/mL	0.0617
S. pneumoniae D39V [4], first compound 2 µg/mL, partner 0.0625 µg/mL	0.0424
S. pneumoniae D39V [4], first compound 2 µg/mL, partner 0.125 µg/mL	0.0433
S. pneumoniae D39V [4], first compound 4 µg/mL, partner 0.005 µg/mL	0.95
S. pneumoniae D39V [4], first compound 4 µg/mL, partner 0.01 µg/mL	0.988
S. pneumoniae D39V [4], first compound 4 µg/mL, partner 0.02 µg/mL	0.885
S. pneumoniae D39V [4], first compound 4 µg/mL, partner 0.0312 µg/mL	0.0587
S. pneumoniae D39V [4], first compound 4 µg/mL, partner 0.0625 µg/mL	0.0393
S. pneumoniae D39V [4], first compound 4 µg/mL, partner 0.125 µg/mL	0.0263

fitness, one replicate
Conditions	first compound 0.5 µg/mL	first compound 1 µg/mL	first compound 2 µg/mL
B. subtilis 168 [1], partner 0.0312 µg/mL	–	0.0152	–
B. subtilis 168 [1], partner 0.0625 µg/mL	–	0.0268	–
B. subtilis 168 [1], partner 0.125 µg/mL	–	0.0146	–
S. aureus DSM 20231 [2], partner 0.06 µg/mL	0.667	0.654	0.637
S. aureus DSM 20231 [2], partner 0.12 µg/mL	0.49	0.46	0.46

Conditions	Bliss interaction score
B. subtilis 168 [5]	-0.0294
S. aureus DSM 20231 [6]	-0.0667
S. aureus Newman [7]	0.0375
S. pneumoniae D39V [8]	-0.0679
